# Measured values taken from patent publication US9173864B2, “Treatment and/or prevention of inner ear conditions by modulation of a metabotropic glutamate receptor” (House Ear Institute, priority 2008, dated 2015).
# Test system: patients with symptoms of presbycusis
# Test: Administration of FTIDC to patients with presbycusis (Example 5)
# Type: in vivo, human
# Conditions: person; for hearing threshold, left ear / hearing threshold, right ear: after 14 days
# Description: A person presents with symptoms of presbycusis, including moderate loss of higher frequency (above 2000 Hz) hearing (50 decibel threshold) in both ears. The person is administered two drops per ear twice daily of a topical otic formulation comprising 10 ug/ml of FTIDC in a phosphate-buffered saline and further comprising 0.25% the carboxyvinyl water swellable gelling agent, Carbopol 934P; i.e., about […] of FTIDC per ear per dosing. After 14 days, the patient is tested by an audiologist. The threshold is lowered to 35 decibels right ear and 40 decibels left ear.
# A person presents with symptoms of presbycusis, including loss of moderately high frequency (above 1000 Hz) hearing (40 decibel threshold right ear and 35 decibel threshold left ear). The person is administered an oral formulation 4 times per day comprising 2 ug per dose of FTIDC. The extended release capsule comprises a matrix of 10% by weight hydroxypropyl methylcellulose (e.g., Methocel®; Dow Chemical Company, U.S.A), and 50% by weight of a cornstarch filler. After 14 days, the threshold is lowered to 35 decibels right ear and 25 decibels left ear.
# A person presents with symptoms of presbycusis, including loss of hearing in the 500 to above 2000 Hz range. The person is implanted with an Alset® osmotic pump adapted for cochlear delivery; see e.g., Richardson, R. T., Noushi, F., O'Leary, S. Inner ear therapy for neural preservation. AUDIOLOGY AND NEURO-OTOLOGY 2006; 11(6): 343-356. The pump is supplied with an aqueous sterile solution comprising FTIDC. The pump delivers a dose of 10 ug/hour of the modulator.
# [1] = higher frequency (above 2000 Hz) loss, 50 decibel threshold before, topical otic drops 10 ug/ml twice daily
structure (smiles),measurement,setting,value
"Cc1c(C2=CCN(C(=O)N(C)C(C)C)CC2)nnn1-c1cccnc1F [FTIDC, 4-[1-(2-fluoropyridin-3-yl)-5-methyl-1H-1,2,3-triazol-4-yl]-N-isopropyl-N-methyl-3,6-dihydropyridine-1(2H)-carboxamide]","hearing threshold, left ear","above 1000 Hz loss, 35 decibel threshold before, oral extended release capsule 2 ug per dose 4 times per day",25 decibels
same,"hearing threshold, right ear","above 1000 Hz loss, 40 decibel threshold before, oral extended release capsule 2 ug per dose 4 times per day",35 decibels
same,"hearing threshold, left ear",[1],40 decibels
same,"hearing threshold, right ear",[1],35 decibels
same,hearing,"loss in 500 to above 2000 Hz range, osmotic pump cochlear delivery 10 ug/hour, after 10 days",hearing is improved in both ears
